Experimental data as given in publication PMC7729195, “Pharmacodynamic Functions of Synthetic Derivatives for Treatment of Methicillin-Resistant Staphylococcus aureus (MRSA) and Mycobacterium tuberculosis” (Frontiers in Microbiology, 2020).
Values after ≈ are worked out from the molar mass of the structure shown. Values joined by “and” are separate entries in the source; they are usually repeats but may differ in a detail not shown here. Equal entries are not always repeated.

What was measured:
HepG2 = assay type: cell-based; settings: human, 7 days
Protocol: (§1) Human alveolar epithelial cells (A549), ([Giard et al., 1973]), Madin-Darby canine kidney epithelial cells (MDCK), ([Gaush et al., 1966]), human leukemia cells (THP-1) ([Tsuchiya et al., 1980]), human hepatocellular carcinoma cells (Hep-G2), ([Aden et al., 1979]), and human embryonic kidney cells 293 (HEK293) ([Graham et al., 1977]) were grown and differentiated in complete RPMI (Roswell Park Memorial Institute Medium) and DMEM (Dulbecco’s Modified Eagle’s medium) tissue culture media (RPMIc and DMEMc). To determine toxicity of the AIMS extract library, 2 × 10^5 of each cell type were added to a 96-well plate and left for 48 h at 37°C to adhere. Extract samples at a final concentration of 0.5 mg mL^–1 were added to the wells, then incubated for 7 days in a humidified 5% CO2 incubator at 37°C. Then resazurin (10 μL of 0.05% w/v) was added, and after 4 h, fluorescence measured as described previously. Cell viability was calculated as percentage fluorescence relative to untreated cells.

A549 = assay type: cell-based; settings: human, 7 days
Protocol: as §1

HEK 293 = assay type: cell-based; settings: human, 7 days
Protocol: as §1

THP1 = assay type: cell-based; settings: human, 7 days
Protocol: as §1

MRSA [1] = assay: Minimum bactericidal concentration (MBC) for MRSA; assay type: cell-based, Staphylococcus aureus; set-up: unit not given here; settings: sub-culture on agar, 18 h
P. aeruginosa PAO1 = assay: Bacterial inhibition assay (resazurin), MIC against P. aeruginosa; assay type: cell-based, Pseudomonas aeruginosa; settings: synthetic compounds, 18 h incubation; for MIC: Pseudomonas aeruginosa, PAO1
M. tuberculosis H37Rv [2] = assay: Checkerboard assay with rifampicin against M. tuberculosis; assay type: cell-based, Mycobacterium tuberculosis; settings: for Drug–drug interactions / FIC: M. tuberculosis, compound with rifampicin; for MIC50: Mycobacterium tuberculosis, H37RV, read-out: Compound alone MIC50 for M. tuberculosis
E. coli EC958 = assay: Bacterial inhibition assay (resazurin), MIC against E. coli; assay type: cell-based, Escherichia coli; settings: synthetic compounds, 18 h incubation; for MIC: Escherichia coli, EC958
MRSA [3] = assay: Checkerboard assay with vancomycin against MRSA; assay type: cell-based, Staphylococcus aureus; settings: for Drug–drug interactions / FIC / MIC50: MRSA; for Drug–drug interactions / FIC: compound with vancomycin; for MIC50: Staphylococcus aureus, compound alone; for Activity against MRSA in combination with vancomycin: vancomycin plus compound
M. tuberculosis H37Rv [4] = assay: Bacterial inhibition assay (resazurin), MIC against M. tuberculosis; assay type: cell-based, Mycobacterium tuberculosis; set-up: MIC for TB. H37Rv: unit not given here; settings: for MIC: Mycobacterium tuberculosis, H37RV, 168 h; for MIC / MIC M. tuberculosis: synthetic compounds, 7 days incubation; for MIC for TB. H37Rv: Table 6 summary
[5] = system: A549, THP-1, HepG2 and HEK 293 cell lines; assay type: cell-based, human
Protocol: as §1

M. tuberculosis = assay: Time-kill study against M. tuberculosis; assay type: cell-based, Mycobacterium tuberculosis; settings: for Effect on bacterial viability: compound treatment, day 6; for Killing effect with rifampicin: rifampicin plus compound, day 7 of treatment
Protocol: Time-kill experiments were performed by culturing MRSA and M. tuberculosis in liquid medium in the presence of six synthesized sample concentrations in doubling dilutions ranging from 8 to 0.001 × MIC and 2 × MIC for both bacteria, respectively. Growth curves were initially generated to confirm that bacteria would reach a stable early- to mid-log phase after 2 and 48 h of pre-incubation in antimicrobial-free both medium, respectively. Samples were taken in different incubation times after drug exposure at 0, 2, 4, 6, 8, and 24 h for MRSA and 24, 48 h, and 4 and 6 days for M. tuberculosis and then plated onto agar plates for CFU determination. The experiments were carried out in duplicate and repeated three times.

TB. H37Rv = assay: Minimum bactericidal concentration (MBC) for TB; assay type: cell-based, Mycobacterium tuberculosis; set-up: unit not given here; settings: sub-culture on agar, 7 days
MRSA [6] = assay: Bacterial inhibition assay (resazurin), MIC against MRSA; assay type: cell-based, Staphylococcus aureus; set-up: MIC for MRSA: unit not given here; settings: for MIC: Staphylococcus aureus, MRSA, synthetic compounds, 18 h incubation; for MIC for MRSA: Table 6 summary
MRSA [7] = assay: Time-kill study against MRSA; assay type: cell-based, Staphylococcus aureus; settings: for Effect of sub-inhibitory combination with vancomycin on MRSA growth: sub-inhibitory combinations with vancomycin; for Concentration at which killing was observed: time-kill, MRSA; for Bactericidal character: conclusion of time-kill studies
resistant strains = assay: MIC against resistant strains; assay type: cell-based; settings: read-out: MIC against resistant strains
[8] = compound 12.5 μM plus vancomycin 50 μg mL^–1

Compound	Minimum toxicity concentration of drug (MTC) HepG2 (HepG2) [µM]	Minimum toxicity concentration of drug (MTC) A549 (A549) [µM]	Minimum toxicity concentration of drug (MTC) HEK 293 (HEK 293) [µM]	Minimum toxicity concentration of drug (MTC) THP1 (THP1) [µM]	MBC for MRSA (MRSA [1])	MIC (P. aeruginosa PAO1) [µM]	Drug–drug interactions (M. tuberculosis H37Rv [2])	FIC (M. tuberculosis H37Rv [2])	MIC50 (M. tuberculosis H37Rv [2]) [µM]	MIC (E. coli EC958) [µM]	FIC (MRSA [3])	MIC50 (MRSA [3]) [µM]	MIC (M. tuberculosis H37Rv [4]) [µM]	MIC for TB. H37Rv (M. tuberculosis H37Rv [4])	Effect on bacterial viability (M. tuberculosis)	MBC for TB. H37Rv (TB. H37Rv)	MIC (MRSA [6]) [µM]	MIC for MRSA (MRSA [6])	Effect of sub-inhibitory combination with vancomycin on MRSA growth (MRSA [7])	Toxicity against THP1 and/or HEK 293 cells [5]	also measured
CCCCCCCCN(CCCCCCCC)c1ccc(C)cc1 [Compound 1b, N,N-Dioctyl-4-Methylaniline]	>100 ± 0.9	>100 ± 3.8	>100 ± 6.0	>100 ± 2.0	200	100 ± 6.5 (≈ 33.2 µg/mL)	Indifference (0.25–4 indifferent or additive activity)	1.1	6.25	100 ± 1 (≈ 33.2 µg/mL)	1.2	100	25 ± 1 (≈ 8.29 µg/mL)	6.25	significant reduction in bacterial viability	100	100 ± 5.4 (≈ 33.2 µg/mL)	100	substantially inhibited growth of MRSA	–	Drug–drug interactions (MRSA [3]): Indifference (0.25–4 indifferent or additive activity); Toxicity against all four cell lines [5]: low toxicity; Time-kill effect against log-phase MRSA (MRSA [7]; 100 μM): rapidly reduced growth by 1 h post-treatment; Effect on regrowth of MRSA (MRSA [7]; [8]): substantially reduced regrowth
CN[C@H](CC(C)C)C(=O)N[C@H]1C(=O)N[C@@H](CC(N)=O)C(=O)N[C@H]2C(=O)N[C@H]3C(=O)N[C@H](C(=O)N[C@H](C(=O)O)c4cc(O)cc(O)c4-c4cc3ccc4O)[C@H](O)c3ccc(c(Cl)c3)Oc3cc2cc(c3O[C@@H]2O[C@H](CO)[C@@H](O)[C@H](O)[C@H]2O[C@H]2C[C@](C)(N)[C@H](O)[C@H](C)O2)Oc2ccc(cc2Cl)[C@H]1O [vancomycin, Vancomycin, reference compound]	–	–	–	–	–	–	–	–	–	–	–	–	–	–	–	–	–	–	–	–	Viable count after regrowth (MRSA [7]; 50 μg mL^–1, after 24h): 106 CFU mL^–1; Time-kill effect against MRSA (MRSA [7]; 100 μg mL^–1 at 24 h): bactericidal effect; Time-kill effect against MRSA compared to untreated bacteria (MRSA [7]; concentrations up to 50 μg mL^–1): did not have an antibacterial effect
CCCCCCCCN(CCCCCCCC)CCCCCCCC [Compound 13, N,N,N-Trioctylammonium Chloride]	>100 ± 5.2	50 ± 1.4	6.5 ± 3.0	3.1 ± 0.7	100	25 ± 4	Indifference (0.25–4 indifferent or additive activity)	1.1	0.02	25 ± 2	–	12.5	0.02	0.02	–	0.39	12.5 ± 2.7	12.5	substantially inhibited growth of MRSA	some toxicity	Drug–drug interactions (MRSA [3]): Indifference (0.25–4 indifferent or additive activity); MIC M. tuberculosis (M. tuberculosis H37Rv [4]): 0.02 ± 1.1 µM; Killing effect with rifampicin (M. tuberculosis): comparable killing effects; Concentration at which killing was observed (MRSA [7]): > 100 μg mL^–1; MIC (resistant strains): ≥ 0.24 µM
CCCCCCCCCCN(CCCCCC)CCCCCC [Compound 3, N,N-Dihexyldecan-1-Amine]	>100 ± 1.0	>100 ± 2.0	25 ± 2.0	50 ± 5.0	12.5	3.1 (≈ 1.01 µg/mL)	–	0.4	1.5	6.2 (≈ 2.02 µg/mL)	1.2	12.5	3.1 (≈ 1.01 µg/mL)	1.5	significant reduction in bacterial viability	6.25	12.5 ± 1 (≈ 4.07 µg/mL)	12.5	substantially inhibited growth of MRSA	some toxicity	MIC P. aeruginosa (P. aeruginosa PAO1): 3.1 ± 5.0 µM (≈ 1.01 µg/mL); Effect against M. tuberculosis in combination with rifampicin (M. tuberculosis H37Rv [2]; rifampicin plus compound): synergistic or bactericidal effects; MIC E. coli (E. coli EC958): 6.2 ± 1.0 µM (≈ 2.02 µg/mL); Drug–drug interactions (MRSA [3]): Indifference (0.25–4 indifferent or additive activity); MIC M. tuberculosis (M. tuberculosis H37Rv [4]): 3.1 ± 0.7 µM (≈ 1.01 µg/mL); Killing effect with rifampicin (M. tuberculosis): comparable killing effects; Bactericidal character (MRSA [7]): strongly bactericidal and concentration dependent; Concentration at which killing was observed (MRSA [7]): 12.5 μg mL^–1
CCCCCCCCN(CCCCCCCC)c1cccc(C)c1 [Compound 1a, N,N-Dioctyl-3-Methylaniline]	>100 ± 3.0	>100 ± 4.1	50 ± 0.9	50 ± 2.0	25	6.2 ± 9 (≈ 2.06 µg/mL)	Indifference (0.25–4 indifferent or additive activity)	1.1	1.5	12.5 ± 5 (≈ 4.14 µg/mL)	0.45	12.5	1.5 ± 3 (≈ 0.497 µg/mL)	1.5	significant reduction in bacterial viability	25	12.5 ± 1 (≈ 4.14 µg/mL)	12.5	substantially inhibited growth of MRSA	some toxicity	Activity against MRSA in combination with vancomycin (MRSA [3]): bactericidal activity; MTC on all cell lines tested ([5]; human, 7 days): 50 to 100 µM; Bactericidal character (MRSA [7]): strongly bactericidal and concentration dependent; MIC (resistant strains): 6.7 to 20 µM (≈ 2.22 to 6.63 µg/mL)
CCCCCCCCN(CCCCCCCC)Cc1ccccc1 [Compound 2a, N-Benzyl-N-Octyloctan-1Amine]	>100 ± 0.8	>100 ± 1.0	50 ± 4.0	6.5 ± 0.8	100	50 ± 1 (≈ 16.6 µg/mL)	Indifference (0.25–4 indifferent or additive activity)	1.1	1.5	50 ± 1 (≈ 16.6 µg/mL)	0.328 and 0.33	12.5	1.5 ± 1 (≈ 0.497 µg/mL)	1.5	significant reduction in bacterial viability	25	12.5 ± 0.7 (≈ 4.14 µg/mL)	12.5	substantially inhibited growth of MRSA	some toxicity	Activity against MRSA in combination with vancomycin (MRSA [3]): bactericidal activity; Time to bactericidal effect (MRSA [7]; [8]): 1 h; Net-growth of MRSA (MRSA [7]; compound 1.5 to 0.1 μM plus vancomycin 50 μg mL^–1, at 24 h): up to 102 CFU mL^–1; Bactericidal character (MRSA [7]): strongly bactericidal and concentration dependent
